Measurements reported in ChEMBL document CHEMBL1275579, “Plasmid-mediated 16S rRNA methylases in aminoglycoside-resistant Enterobacteriaceae isolates in Shanghai, China” (2009).

Columns and labels:
Enterobacteriaceae = experiment: Antibacterial activity against 16S rRNA methylase and beta-lactamase producing Enterobacteriaceae by CLSI method; assay type: functional
Enterobacter cloacae = experiment: Antibacterial activity against armA-positive Enterobacter cloacae expressing KPC-2 beta-lactamase by CLSI method; assay type: functional

Row | Molecule | MIC50 (Enterobacteriaceae) | MIC90 (Enterobacteriaceae) | MIC (Enterobacter cloacae)
1 | NCC[C@H](O)C(=O)N[C@@H]1C[C@H](N)[C@@H](O[C@H]2O[C@H](CN)[C@@H](O)[C@H](O)[C@H]2O)[C@H](O)[C@H]1O[C@H]1O[C@H](CO)[C@@H](O)[C@H](N)[C@H]1O [AMIKACIN] | > 256 µg/mL | > 256 µg/mL | 
2 | GENTAMICIN | > 256 µg/mL | > 256 µg/mL | 
3 | C[C@@H](O)[C@H]1C(=O)N2C(C(=O)O)=C(SCCNC=N)C[C@H]12 [IMIPENEM ANHYDROUS] |  |  | > 32 µg/mL
